Source: US20240025883A1, “PYRIMIDIN-2-YL SULFONAMIDE DERIVATIVES” (Hoffmann-La Roche Inc., priority 2021, published 2024)
pIC50: −log10 of the molar value.

These molecules were tested against human GPR17 short isoform (Homo sapiens (Human), UniProt Q13304) (assay: GPR17 cAMP assay (hGPR17 cAMP, antagonist mode against EC80 of MDL29,951)). Details: CHO-K1 cells stably expressing human GPR17 short isoform; EC80 of agonist MDL29,951; forskolin 15 μM.
Assay type: cell-based
Summary of the method: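 cAMP was read by competitive TR-FRET after a 30 min room-temperature stimulation: antagonists plus EC80 MDL29,951 and 0.5 mM IBMX, followed 5 min later by 15 μM forskolin. Cells were CHO-K1 with stable human GPR17 short isoform in HBSS/HEPES/BSA, pH 7.4; percent activity versus reference antagonist fitted sigmoidally.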

Sequence of human GPR17 short isoform (Q13304 29-367): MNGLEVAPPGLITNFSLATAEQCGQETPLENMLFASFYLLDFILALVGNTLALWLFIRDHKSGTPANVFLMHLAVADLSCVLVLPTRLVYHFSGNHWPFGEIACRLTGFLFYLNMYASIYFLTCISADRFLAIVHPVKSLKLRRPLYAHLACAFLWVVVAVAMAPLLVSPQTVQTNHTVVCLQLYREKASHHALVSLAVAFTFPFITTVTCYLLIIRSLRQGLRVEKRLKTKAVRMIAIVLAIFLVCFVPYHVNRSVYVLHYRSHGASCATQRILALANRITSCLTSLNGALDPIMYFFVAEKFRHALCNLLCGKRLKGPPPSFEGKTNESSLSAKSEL

SMILES	pIC50
COc1nc(NS(=O)(=O)c2c[nH]c3cc(C(F)F)ccc23)nc(OC)c1OCC#N [Example 237, N-[5-(cyanomethoxy)-4,6-dimethoxy-pyrimidin-2-yl]-6-(difluoromethyl)-1H-indole-3-sulfonamide]	7.47
COc1nc(NS(=O)(=O)c2c[nH]c3nc(C(F)F)ccc23)ncc1OC(F)(F)CF [Example 238, 6-(difluoromethyl)-N-[4-methoxy-5-(1,1,2-trifluoroethoxy)pyrimidin-2-yl]-1H-pyrrolo[2,3-b]pyridine-3-sulfonamide]	6.42
COc1nc(NS(=O)(=O)c2c[nH]c3nc(C(F)F)ccc23)nc(OC)c1CCC#N [Example 239, N-[5-(2-cyanoethyl)-4,6-dimethoxy-pyrimidin-2-yl]-6-(difluoromethyl)-1H-pyrrolo[2,3-b]pyridine-3-sulfonamide]	7.34
COc1nc(NS(=O)(=O)c2c[nH]c3c(F)c(Br)ccc23)ncc1CCC#N [Example 240, 6-bromo-N-[5-(2-cyanoethyl)-4-methoxy-pyrimidin-2-yl]-7-fluoro-1H-indole-3-sulfonamide]	7.32
COc1nc(NS(=O)(=O)c2c[nH]c3c(F)c(Br)ccc23)nc(OC)c1OC(F)F [Example 241, 6-bromo-N-[5-(difluoromethoxy)-4,6-dimethoxy-pyrimidin-2-yl]-7-fluoro-1H-indole-3-sulfonamide]	7.68
COc1nc(NS(=O)(=O)c2c[nH]c3c(F)c(Br)ccc23)nc(OC)c1OCC(F)F [Example 242, 6-bromo-N-[5-(2,2-difluoroethoxy)-4,6-dimethoxy-pyrimidin-2-yl]-7-fluoro-1H-indole-3-sulfonamide]	7.37
COc1nc(NS(=O)(=O)c2c[nH]c3cc(Br)ccc23)nc(OC)c1OCC#N [Example 246, 6-bromo-N-[5-(cyanomethoxy)-4,6-dimethoxy-pyrimidin-2-yl]-1H-indole-3-sulfonamide]	7.72
COc1nc(NS(=O)(=O)c2c[nH]c3c(F)c(C(F)F)ccc23)ncc1OCCF [Example 247, 6-(difluoromethyl)-7-fluoro-N-[5-(2-fluoroethoxy)-4-methoxy-pyrimidin-2-yl]-1H-indole-3-sulfonamide]	7.38
COc1nc(NS(=O)(=O)c2c[nH]c3c(F)c(C(F)F)ccc23)ncc1CC(F)F [Example 248, N-[5-(2,2-difluoroethyl)-4-methoxy-pyrimidin-2-yl]-6-(difluoromethyl)-7-fluoro-1H-indole-3-sulfonamide]	6.44
COc1nc(NS(=O)(=O)c2c[nH]c3c(F)c(C(F)F)ccc23)nc(OC)c1OC(F)F [Example 249, N-[5-(difluoromethoxy)-4,6-dimethoxy-pyrimidin-2-yl]-6-(difluoromethyl)-7-fluoro-1H-indole-3-sulfonamide]	7.44
COc1nc(NS(=O)(=O)c2c[nH]c3c(F)c(C(F)F)ccc23)nc(OC)c1OCC(F)F [Example 250, N-[5-(2,2-difluoroethoxy)-4,6-dimethoxy-pyrimidin-2-yl]-6-(difluoromethyl)-7-fluoro-1H-indole-3-sulfonamide]	7.46
COc1nc(NS(=O)(=O)c2c[nH]c3c(F)c(C(F)F)ccc23)nc(OC)c1CCC#N [Example 252, N-[5-(2-cyanoethyl)-4,6-dimethoxy-pyrimidin-2-yl]-6-(difluoromethyl)-7-fluoro-1H-indole-3-sulfonamide]	7.85
COc1nc(NS(=O)(=O)c2c[nH]c3c(F)c(C(F)F)ccc23)nc(OC)c1OCC#N [Example 253, N-[5-(cyanomethoxy)-4,6-dimethoxy-pyrimidin-2-yl]-6-(difluoromethyl)-7-fluoro-1H-indole-3-sulfonamide]	7.70
COc1nc(NS(=O)(=O)c2c[nH]c3cc(C4CC4)ccc23)ncc1CC(F)F [Example 254, 6-cyclopropyl-N-[5-(2,2-difluoroethyl)-4-methoxy-pyrimidin-2-yl]-1H-indole-3-sulfonamide]	7.12
COc1nc(NS(=O)(=O)c2c[nH]c3cc(F)ccc23)nc(OC)c1OC(F)F [Example 256, N-[5-(difluoromethoxy)-4,6-dimethoxy-pyrimidin-2-yl]-6-fluoro-1H-indole-3-sulfonamide]	6.67
COc1nc(NS(=O)(=O)c2c[nH]c3cc(F)ccc23)nc(OC)c1CCC#N [Example 259, N-[5-(2-cyanoethyl)-4,6-dimethoxy-pyrimidin-2-yl]-6-fluoro-1H-indole-3-sulfonamide]	7.60
COc1nc(NS(=O)(=O)c2c[nH]c3cc(Cl)ccc23)ncc1CC(F)(F)C(F)F [Example 261, 6-chloro-N-[4-methoxy-5-(2,2,3,3-tetrafluoropropyl)pyrimidin-2-yl]-1H-indole-3-sulfonamide]	7.04

More lines, now with the values ahead:

pIC50	SMILES
7.49	COc1nc(NS(=O)(=O)c2c[nH]c3cc(C(F)F)ccc23)ncc1OCCF [Example 235, 6-(difluoromethyl)-N-[5-(2-fluoroethoxy)-4-methoxy-pyrimidin-2-yl]-1H-indole-3-sulfonamide]
7.85	COc1nc(NS(=O)(=O)c2c[nH]c3cc(C(F)F)ccc23)nc(OC)c1CC(F)F [Example 236, N-[5-(2,2-difluoroethyl)-4,6-dimethoxy-pyrimidin-2-yl]-6-(difluoromethyl)-1H-indole-3-sulfonamide]
8.05	COc1nc(NS(=O)(=O)c2c[nH]c3c(F)c(Br)ccc23)nc(OC)c1CCC#N [Example 243, 6-bromo-N-[5-(2-cyanoethyl)-4,6-dimethoxy-pyrimidin-2-yl]-7-fluoro-1H-indole-3-sulfonamide]
7.80	COc1nc(NS(=O)(=O)c2c[nH]c3c(F)c(Br)ccc23)nc(OC)c1OCC#N [Example 244, 6-bromo-N-[5-(cyanomethoxy)-4,6-dimethoxy-pyrimidin-2-yl]-7-fluoro-1H-indole-3-sulfonamide]
7.57	COc1nc(NS(=O)(=O)c2c[nH]c3cc(Br)ccc23)nc(OC)c1CC(F)F [Example 245, 6-bromo-N-[5-(2,2-difluoroethyl)-4,6-dimethoxy-pyrimidin-2-yl]-1H-indole-3-sulfonamide]
7.66	COc1nc(NS(=O)(=O)c2c[nH]c3c(F)c(C(F)F)ccc23)nc(OC)c1CC(F)F [Example 251, N-[5-(2,2-difluoroethyl)-4,6-dimethoxy-pyrimidin-2-yl]-6-(difluoromethyl)-7-fluoro-1H-indole-3-sulfonamide]
7.42	COc1nc(NS(=O)(=O)c2c[nH]c3c(Br)c(Cl)ccc23)ncc1CCC#N [Example 255, 7-bromo-6-chloro-N-[5-(2-cyanoethyl)-4-methoxy-pyrimidin-2-yl]-1H-indole-3-sulfonamide]
7.08	COc1nc(NS(=O)(=O)c2c[nH]c3cc(F)ccc23)nc(OC)c1OCC(F)F [Example 257, N-[5-(2,2-difluoroethoxy)-4,6-dimethoxy-pyrimidin-2-yl]-6-fluoro-1H-indole-3-sulfonamide]
7.43	COc1nc(NS(=O)(=O)c2c[nH]c3cc(F)ccc23)nc(OC)c1CC(F)F [Example 258, N-[5-(2,2-difluoroethyl)-4,6-dimethoxy-pyrimidin-2-yl]-6-fluoro-1H-indole-3-sulfonamide]
6.31	COc1nc(NS(=O)(=O)c2c[nH]c3cc(Cl)ccc23)ncc1CC(C)(F)F [Example 260, 6-chloro-N-[5-(2,2-difluoropropyl)-4-methoxy-pyrimidin-2-yl]-1H-indole-3-sulfonamide]
